In US20250099486A1, “WOUND HEALING MEDICAMENT” (The University of Sheffield, priority 2017, published 2025):

Key:
endothelial cell = settings: in vitro; reported by Merchan et al. 2010; cited from earlier work
CAM [1] = assay: Ex-ovo CAM assay, direct application of substances; format: in vivo, chicken (Gallus domesticus); settings: over 4 days
Experimental: (§1) All CAM experiments were carried out according to the Home Office, UK guidelines. Fertilised chicken eggs (Gallus domesticus) were purchased from Henry Stewart & Co. (MedEggs, Norwich, UK). The eggs were carefully wiped with 20% industrial methylated spirit (IMS) solution using hand paper towels in order to remove dirt and feathers from the shell. The eggs were then incubated at 37.5° C. until embryonic development day (EDD) 3, lying horizontally in an humidified egg incubator (RCOM King SURO, P&T Poultry, Powys, Wales).
(§2) On EDD3, the upper surface of the eggs were marked with a felt pen. The eggs were held horizontally (with the marked surface on top) and cracked on the edge of a 1000 ml glass beaker and kept close to the bottom surface of petri dishes. The embryos were then transferred gently into sterile petri dishes and kept in a humidified incubator (Binder, Tuttlingen, Germany) at 38° C.
Plastic rings (˜6.5 mm in diameter) were used as a reservoir for substances and a marker for the implantation area, were placed on the CAM, and the substances were applied as 20 μl volume onto the CAM twice a day to give a […] between EDD7 and EDD11. Images of the rings were acquired using a digital microscope at EDD11, and then 20% lens culinaris agglutinin (LCA) (Vector Laboratories, Peterborough, UK) was injected into the circulation for labelling the intravascular endothelial cells using 30G needles under a dissection microscope (Wild Heerbrugg, Heerbrugg, Switzerland). CAMs were then removed and fixed in 3.7% formaldehyde solution. Embryos were sacrificed at the end of EDD11. Fixed CAM samples were then imaged under a confocal microscope (Zeiss LSM 510 Meta, Jena, Germany) for investigating the effect of substances on the microvascular structure of the CAMs.
Blood vessels were quantified by segmentation of the images [C. Roma-Rodrigues, A. Heuer-Jungemann, A. R. Fernandes, A. G. Kanaras, P. V. Baptista, Peptide-coated gold nanoparticles for modulation of angiogenesis in vivo, IntJ Nanomedicine. 11 (2016) 2633-2639. doi: 10.2147/IJN.S108661] so as to include all discernible vessels and then counting the branch points and calculating average vessel lengths [D. Ribatti, B. Nico, A. Vacca, M. Presta, The gelatin sponge-chorioallantoic membrane assay, Nat Protoc. 1 (2006) 85-91. doi: 10.1038/nprot.2006.13, P. Brooks, A. P. Montgomery, D. Cheresh, Use of the 10-Day-Old Chick Embryo Model for Studying Angiogenesis, Integrin Protoc. 129 (1999) 257-269. doi: 10.1385/1-59259-249-X: 257] via multiple image processing steps. Firstly, the internal area of the ring was cropped, and the red, green and blue channels were split using Adobe Photoshop CS6 (ADOBE Systems Inc., San Jose, California, USA). The green channel was then imported to ImageJ (Wayne Rasband, National Institutes of Health, USA) for further analysis including unsharp mask filtering, enhancing the local contrast, noise removal and segmentation. Finally, the number of branch points was quantified using quantification software (AngioTool, National Cancer Institute, USA) (FIG. 14A) and average blood vessel lengths were calculated by using binary image histograms with known pixel/mm ratios in ImageJ (Wayne Rasband, National Institutes of Health, USA).
The percentage vascular area (VA %) of the microvasculature of CAMs were quantified using confocal images of rhodamine labelled lectin injected CAM samples as shown in FIG. 14B. To do this, images were imported to ImageJ (Wayne Rasband, National Institutes of Health, USA) and converted to binary images after filtering and smoothing processes prior to quantification. VA % was calculated using the histogram list of black and white areas in the image.
All chemicals were purchased from Sigma Aldrich unless indicated otherwise. […]

[2] = E2 and 2dDR release from PHBV scaffolds in PBS; format: physicochemical; settings: within 7 days
Experimental: 10% (w/w) PHBV solution loaded was prepared prior to electrospinning. 1 g of PHBV granules (Goodfellow, London, UK) were dissolved in 1 g of methanol (Fisher Scientific, Massachusetts, USA) and 8 g of DCM (Fisher Scientific, Massachusetts, USA) in a fume hood. Four 10% PHBV solutions were prepared prior to addition of substances. Finally, 25 mg E2, 50 mg of E2, 250 mg of 2dDR and 500 mg of 2dDR were then added to each solution per 1 g of PHBV. The mixtures were magnetically stirred overnight.
Scaffolds were cut into pieces so to fit into an 6-well plate, weighed and submerged in 4 ml of PBS. The E2 and 2dDR concentrations released from each group (25 mg E2, 50 mg E2, 250 mg 2dDR, 500 mg 2dDR) were measured […] using a UV-VIS spectrophotometer (Thermo Fischer Evolution 220, Massachusetts, USA) at 238 nm for 2dDR and 220 nm for E2. Absorbance values were converted into concentrations using a standard curve of known concentrations of E2 and 2dDR.

CAM [3] = assay: Ex-ovo CAM assay, implantation of E2 and 2dDR releasing PHBV scaffolds; format: in vivo, chicken (Gallus domesticus); settings: for mean vessel count: control 23.1 (±1.24)
Experimental: as §1, §2
Scaffolds were cut into 5.5 mm diameter circles using a laser cutting machine (Epilog Laser Cutter, Clevedon, UK) and sterilised under UV light for 1 hour prior to implantation. Two circular scaffolds were placed on CAM at EDD8. Images of the scaffolds were acquired using a digital microscope at EDD 12 and EDD14. Microinjection of rhodamine labelled lectin into the circulation was performed, CAMs were removed and fixed in 3.7% formaldehyde solution. Embryos were then sacrificed at the end of EDD14. Angiogenesis was quantified by counting all blood vessels that converged towards the graft.
Haematoxylin and Eosin (H&E) staining was performed on cell impregnated scaffolds by modifiying a standard protocol. Briefly, fixed samples were embedded in optimal cutting temperature OCT and frozen in liquid nitrogen for 3 minutes. Sections were cut 8-10 μm thick using a cryostat (Leica Biosystems Nussloch, Germany) at −20° C. Sections were then stained with haematoxylin for 90 seconds and eosin for 5 minutes respectively. Finally H&E images were acquired under a light microscope (Motic DM-B1, Xiamen, China). The total number of blood vessels adjacent to the scaffolds were quantified by counting blood vessels in H&E sections [A. Minajeva, M. Kase, M. Saretok, A. Adamson-Raieste, S. Kase, K. Niinepuu, M Vardja, T. Asser, J. Jaal, Impact of Blood Vessel Quantity and Vascular Expression of CD133 and ICAM-1 on Survival of Glioblastoma Patients, Neurosci J. 2017 (2017) 8 pages] Briefly, all discernible blood vessels adjacent to the scaffolds were counted by two independent researchers using two independent microscopes at 10× magnification from the total of six different slides for each group and six different area of interest from each slide.

[4] = tested on: chorionic allantoic membrane (CAM); assay: CAM assay of deoxy sugar-loaded biomaterials (in ovo, implanted day 8, scored day 14); format: in vivo, chicken (Gallus domesticus); settings: loaded (1 mg/ml) in cross-linked chitosan/collagen hydrogels
Experimental: Fertilized chicken (Gallus domesticus) eggs were purchased from Big Bird (Raiwind road, Lahore, Pakistan) and incubated at 37° C. from day 2 of fertilization until day 8 in a humidified egg incubator (HHD, 435, China). At day 8, a square window (1 cm^2) was cut into the shell and removed, and a 2 cm^2 piece of the electrospun scaffold or hydrogels (16% PCL electrospun scaffold/CS/PVA hydrogel/CS/collagen hydrogels) placed onto the CAM. Each egg was implanted with one scaffold or hydrogel only.
The shell window was closed with parafilm (Bemis Flexible Packaging, USA) and sealed with adhesive tape. After implantation, eggs were placed again at 37° C. in a 40% humidified incubator until day 14. At day 14, biomaterials were retrieved and the eggs were sacrificed. Angiogenesis was quantified by taking light microscope pictures just before scaffold retrieval and then blindly scored by four assessors using histological images of the retrieved materials. The number of implanted and survived eggs is given in the caption of respective CAM assay figures.
D and L isomers of three-deoxysugars (ribose, fucose and rhamnose) were loaded onto the porous freeze gelated triethyl orthoformate (4%) covalently cross-linked chitosan/collagen (1:1) hydrogels. The hydrogels were soaked in an aqueous solution of sugars (1 mg/ml) and were further lyophilized (freeze dried) to produce porous membranes. As for the electrospun scaffold, the hydrogels were grafted into the fertilized eggs at day 8 and after day 14 the eggs were sacrificed and the effect of sugars on angiogenesis was investigated.

In the case of `O=CC[C@@H](O)[C@H](O)[C@H](O)CO` [2-DG, 2-deoxy-D-Glucose], the antiangiogenic activity (endothelial cell) is listed as “inhibited endothelial capillary formation and endothelial cell migration”.
With `C[C@]12CC[C@@H]3c4ccc(O)cc4CC[C@H]3[C@@H]1CC[C@@H]2O` [E2, Oestradiol, reference compound] the “increase of number of branch points compared to controls” value (from here on “increase of number of branch points”) (CAM [1]; E2 100 ng/day) was 1.3 fold, the “increase of number of branch points” value (CAM [1]; E2 200 ng/day) was 1.5 fold and the “percentage vascular area (VA %) of microvasculature” value (CAM [1]; E2 200 ng/day, control 55.3%±3%) was 79.5%±5%. For the same compound, the “increase of number of branch points” value (CAM [1]; E2 600 ng/day) was 1.4 fold, the “increase of average vessel length compared to controls” value (CAM [1]; all E2 concentrations (100, 200, 600 ng/day)) was 1.2 fold and the “total release from scaffolds, of the initial amount present in the polymer solution” value ([2]; 25 mg E2 per 1 g PHBV scaffold) was 1.3%. For the same compound, the “total release from scaffolds, of the initial amount present in the polymer solution” value ([2]; 50 mg E2 per 1 g PHBV scaffold) was 1.6%, the mean vessel count (CAM [3]; 25 mg E2 loaded PHBV scaffolds) was 49.5 (±0.92) and the mean vessel count (CAM [3]; 50 mg E2 loaded PHBV scaffolds) was 37.9 (±1.05). The “mean number of blood vessels adjacent to the scaffolds (H&E sections)” value (CAM [3]; all concentrations, compared with controls and CAM only groups) was “significantly increased” and the “number of discernible blood vessels growing towards the scaffolds in comparison with plain PHBV scaffolds” value (CAM [3]; all groups of releasing PHBV scaffolds) was “at least doubled”.
With `C[C@@H](O)[C@H](O)[C@H](O)[C@@H](O)C=O` [Deoxy-D-fucose, D-fucose, reference compound] the angiogenic response [4] was “no significant response”.
For `C[C@@H](O)[C@@H](O)[C@H](O)[C@H](O)C=O` [Deoxy-D-rhamnose, D-rhamnose, reference compound], the angiogenic response [4] was “only a marginal response”.
